From ChEMBL document CHEMBL3879916, “1-sulfonyl piperidine derivatives as modulators of prokineticin receptors” (2014)

Molecular target: Prokineticin receptor 1 (Homo sapiens, UniProt Q8TCW9)
Test: Antagonist activity at human PKR1 expressed in RBL2H3 cells assessed as inhibition of prokineticin1-mediated intracellular calcium release preincubated for 10 mins followed by PK1 addition by FLIPR assay
Assay type: functional, cell-based, RBL-2H3

Chain of Prokineticin receptor 1 (Q8TCW9 whole entry): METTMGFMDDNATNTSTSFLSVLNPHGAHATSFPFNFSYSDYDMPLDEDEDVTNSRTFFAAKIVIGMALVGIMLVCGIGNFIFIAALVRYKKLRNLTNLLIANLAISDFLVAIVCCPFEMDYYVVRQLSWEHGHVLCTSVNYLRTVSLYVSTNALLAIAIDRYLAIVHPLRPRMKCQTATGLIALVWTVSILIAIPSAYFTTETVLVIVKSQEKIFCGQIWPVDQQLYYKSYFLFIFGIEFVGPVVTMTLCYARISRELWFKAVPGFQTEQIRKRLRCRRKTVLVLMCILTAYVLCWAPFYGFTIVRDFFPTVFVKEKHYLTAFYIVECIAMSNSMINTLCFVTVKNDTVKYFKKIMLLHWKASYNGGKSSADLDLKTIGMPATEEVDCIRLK

- IC50: 1630 nM
Structure (SMILES): Cc1n[nH]c(C)c1S(=O)(=O)N1CCC(=C(F)c2ccc(F)cc2F)CC1
